# Experimental data as given in patent US20250353860A1, “PIPERIDINE CARBOXAMIDE AZAINDANE DERIVATIVE, METHOD FOR PREPARING SAME, AND USE THEREOF” (BRISE PHARMACEUTICALS CO., LTD., priority 2022, published 2025).
# Target: T1, CGRP receptor (Homo sapiens, UniProt O60894+Q16602)
# Experiment: Inhibition of CGRP signaling pathway (cAMP, HTRF) in CHO-K1 cells expressing human CGRP receptors
# Format: cell-based
# Design: host or cells: CHO-K1
# Conditions: [α-CGRP]=10 ng/ml; increase in cAMP levels; read-out: IC50 of the inhibitory effect on the CGRP signaling pathway in CHO-K1 cells expressing human CGRP receptors
# Protocol: (§1) The inhibitory effect of the CGRP signaling pathway in vitro is evaluated by measuring the cAMP level. The principle is that after CGRP binds to the CGRP receptor, the CGRP signaling pathway is activated, inducing an increase in the cAMP level. […] The specific experimental method is as follows:
# CHO-K1 cells expressing human CGRP receptor (CGRPR/CHO-K1, PerkinElmer, ES-420-C) were cultured in F12K+10% FBS+400 μg/mL G418+10 μg/mL Blasticidin medium, and the cells were collected in the logarithmic growth phase. According to the instructions of the kit, the cells were resuspended in Stimulation Buffer comprising 0.5 mM IBMX, and 5 μL of the cell suspension was added to each well of a 96-well microplate (Cisbio, 66PL96025) at a cell density of 15,000 cells/well. 2.5 μL of gradient diluted compound solution was added to each well. After incubation at 37° C. for 30 minutes, 2.5 μL of 40 ng/ml human α-CGRP (Bachem, H-1470,0500) diluted in Stimulation Buffer comprising 0.5 mM IBMX was added to each well to a final concentration of 10 ng/ml. After incubation at 37° C. for 30 minutes, 5 μL of Anti-cAMP-Cryptate solution and 5 μL of cAMP-d2 solution were added to each well. After incubation at room temperature for 60 minutes, the HTRF signal was read using a microplate reader (Molecular Devices). Graphpad Prism was used to calculate the IC50 value of the compound's inhibitory effect on the increase in cAMP levels based on the compound concentration and HTRF signal.
row,IC50,Structure (SMILES)
1,250 nM,"CC1C(c2c(F)ccc(F)c2F)CC(NC(=O)c2cc3c(s2)CCC2(C3)C(=O)Nc3ncccc32)C(=O)N1CC(F)(F)F (stereo not shown) [Example 2, N-(6-methyl-2-oxo-1-(2,2,2-trifluoroethyl)-5-(2,3,6-trifluorophenyl)piperidin-3-yl)-2′-oxo-1′,2′,6,7-tetrahydro-4H-spiro[benzo[b]thiophene-5,3′-pyrrolo[2,3-b]pyridine]-2-carboxamide]"
2,64.7 nM,"CC1C(c2c(F)ccc(F)c2F)CC(NC(=O)c2cc3c(s2)CC2(C3)C(=O)Nc3ncccc32)C(=O)N1CC(F)(F)F (stereo not shown) [Example 3, N-(6-methyl-2-oxo-1-(2,2,2-trifluoroethyl)-5-(2,3,6-trifluorophenyl)piperidin-3-yl)-2′-oxo-1′,2′,4,6-tetrahydrospiro[cyclopenta[b]thiophene-5,3′-pyrrolo[2,3-b]pyridine]-2-carboxamide]"

# Further lines, the molecule ahead of its results:
row,Structure (SMILES),IC50
1,"CC1C(c2c(F)ccc(F)c2F)CC(NC(=O)c2cc3c(o2)CCC2(C3)C(=O)Nc3ncccc32)C(=O)N1CC(F)(F)F (stereo not shown) [Example 1, N-(6-methyl-2-oxo-1-(2,2,2-trifluoroethyl)-5-(2,3,6-trifluorophenyl)piperidin-3-yl)-2′-oxo-1′,2′,6,7-tetrahydro-4H-spiro[benzofuran-5,3′-pyrrolo[2,3-b]pyridine]-2-carboxamide]",106 nM
2,"CC1C(c2c(F)ccc(F)c2F)CC(NC(=O)c2cc3c(o2)CC2(C3)C(=O)Nc3ncccc32)C(=O)N1CC(F)(F)F (stereo not shown) [Example 4, N-(6-methyl-2-oxo-1-(2,2,2-trifluoroethyl)-5-(2,3,6-trifluorophenyl)piperidin-3-yl)-2′-oxo-1′,2′,4,6-tetrahydrospiro[cyclopenta[b]furan-5,3′-pyrrolo[2,3-b]pyridine]-2-carboxamide]",199 nM

# Target: T1, CGRP receptor
# Experiment: Affinity for human CGRP receptor ([125I]h-CGRPα competition, CHO cell membranes)
# Format: binding
# Design: host or cells: CHO-K1
# Conditions: 0.03 nM [125I]h-CGRPα; Cheng Prusoff; read-out: Ki of the affinity determination to human CGRP receptor
# Protocol: The cell membrane homogenate of CHO cells expressing human CGRP receptor (comprising 16 μg of protein) was incubated with 0.03 nM [^125I]h-CGRPα and gradiently diluted test samples in buffer (50 mM Hepes-NaOH (pH 7.4), 10 mM MgCl2, 4 mM KCl, 10 mM […], 1 mM EDTA, 1 μM phosphorylation amide, 0.3% BSA and 0.04% bacitracin) at 22° C. for 90 minutes. A control group without the test sample was set up to obtain the highest binding signal of the experiment, and the non-specific binding of the experiment was determined by adding 1 μM non-isotope-labeled h-CGRPα to the control group. After the incubation, a glass fiber filter (GF/B, Packard) soaked with 0.3% PEI was placed in a 96-well cell collector (Unfilter, Packard), and the sample was quickly filtered under vacuum and rinsed several times with precooled buffer comprising 50 mM Tris-HCl and 150 mM NaCl. After the filter was dried, scintillation fluid (Microscint 0, Packard) was added and the radioactive signal value was measured using a scintillation counter (Topcount, Packard). The results are expressed as the percentage of inhibition of specific binding of the radioligand. Non-isotope labeled h-CGRPα was used as a standard sample as a control. The test samples and standard samples were tested at multiple concentrations to obtain a competition curve with [^125I]h-CGRPα, thereby calculating the IC50) 20 of each sample. The inhibition constant Ki was further calculated using the Cheng Prusoff equation: Ki=IC50/(1+L/KD), wherein L represents the concentration of [^125I]h-CGRPα in the system (0.03 nM), and KD represents the dissociation constant between [^125I]h-CGRPα and the human CORP receptor in the system (0.06 nM).
row,Ki,Structure (SMILES)
1,0.027 nM,"C[C@@H]1[C@H](c2ccccc2)C[C@H](NC(=O)c2cnc3c(c2)C[C@@]2(C3)C(=O)Nc3ncccc32)C(=O)N1CC(F)(F)F [Ubrogepant, reference compound]"

# Target: T1, CGRP receptor
# Experiment: Inhibition of CGRP signaling pathway (cAMP, HTRF) in SK-N-MC cells
# Format: cell-based
# Design: SK-N-MC (ATCC, HTB-10) cells endogenously expressing CGRP receptor; host or cells: SK-N-MC
# Conditions: [α-CGRP]=10 ng/mL; increase in cAMP levels; read-out: IC50 of the inhibitory effect on the CGRP signaling pathway in SK-N-MC cells
# Protocol: as §1
# cAMP was determined using the CAMP-GS DYNAMIC KIT detection kit (Cisbio, 62AM4PEB).
# SK-N-MC (ATCC, HTB-10) cells endogenously expressing CGRP receptor were cultured in EMEM+10% FBS medium and the cells were collected during the logarithmic growth phase. According to the instructions of the kit, the cells were resuspended in Stimulation Buffer comprising 0.5 mM IBMX, and 5 μL of the cell suspension was added to each well of a 96-well microplate (Cisbio, 66PL96025) at a cell density of 15,000 cells/well, 2.5 μL of gradient diluted compound solution was added to each well. After incubation at 37° C. for 30 minutes, 2.5 μL of 40 ng/ml human α-CGRP (Bachem, H-1470.0500) diluted in Stimulation Buffer comprising 0.5 mM IBMX was added to each well to a final concentration of 10 ng/ml. After incubation at 37° C. for 30 minutes, 5 μL of Anti-cAMP-Cryptate solution and 5 μL of cAMP-d2 solution were added to each well. After incubation at room temperature for 60 minutes, the HTRF signal was read using a microplate reader (Molecular Devices). Graphpad Prism was used to calculate the IC50 value of the compound's inhibitory effect on the increase in cAMP levels based on the compound concentration and HTRF signal.
row,IC50,Structure (SMILES)
1,6.8 nM,"C[C@@H]1[C@H](c2c(F)ccc(F)c2F)C[C@H](NC(=O)c2cc3c([nH]2)CC2(C3)C(=O)Nc3ncccc32)C(=O)N1CC(F)(F)F (stereo partly drawn) [Example 10, N-((3S,5S,6R)-6-methyl-2-oxo-1-(2,2,2-trifluoroethyl)-5-(2,3,6-trifluorophenyl)piperidin-3-yl)-2′-oxo-1′,2′,4,6-tetrahydro-1H-spiro[cyclopenta[b]pyrrole-5,3′-pyrrolo[2,3-b]pyridine]-2-carboxamide]"
2,11 nM,"C[C@@H]1[C@H](c2c(F)ccc(F)c2F)C[C@H](NC(=O)c2nc3c(s2)CC2(C3)C(=O)Nc3ncccc32)C(=O)N1CC(F)(F)F (stereo partly drawn) [Example 11, N-((3S,5S,6R)-6-methyl-2-oxo-1-(2,2,2-trifluoroethyl)-5-(2,3,6-trifluorophenyl)piperidin-3-yl)-2′-oxo-1′,2′,4,6-tetrahydrospiro[cyclopenta[d]thiazole-5,3′-pyrrolo[2,3-b]pyridine]-2-carboxamide]"

# Second part, the molecule before the results:
row,Structure (SMILES),IC50
1,"C[C@@H]1[C@H](c2c(F)ccc(F)c2F)C[C@H](NC(=O)c2nc3c(s2)CC2(CC3)C(=O)Nc3ncccc32)C(=O)N1CC(F)(F)F (stereo partly drawn) [Example 9, N-((3S,5S,6R)-6-methyl-2-oxo-1-(2,2,2-trifluoroethyl)-5-(2,3,6-trifluorophenyl)piperidin-3-yl)-2′-oxo-1′,2′,4,7-tetrahydro-5H-spiro[benzo[d]thiazole-6,3′-pyrrolo[2,3-b]pyridine]-2-carboxamide]",> 100 nM
2,"C[C@@H]1[C@H](c2c(F)ccc(F)c2F)C[C@H](NC(=O)c2nc3c(o2)CCC2(C3)C(=O)Nc3ncccc32)C(=O)N1CC(F)(F)F (stereo partly drawn) [Example 12, N-((3S,5S,6R)-6-methyl-2-oxo-1-(2,2,2-trifluoroethyl)-5-(2,3,6-trifluorophenyl)piperidin-3-yl)-2′-oxo-1′,2′,6,7-tetrahydro-4H-spiro[benzo[d]oxazole-5, 3′-pyrrolo[2,3-b]pyridine]-2-carboxamide]",53.6 nM
3,"C[C@@H]1[C@H](c2c(F)ccc(F)c2F)C[C@H](NC(=O)c2cc3c([nH]2)CCC2(C3)C(=O)Nc3ncccc32)C(=O)N1CC(F)(F)F (stereo partly drawn) [Example 13, N-((3S,5S,6R)-6-methyl-2-oxo-1-(2,2,2-trifluoroethyl)-5-(2,3,6-trifluorophenyl)piperidin-3-yl)-2′-oxo-1,1′,2′,4,6,7-hexahydrospiro[indole-5,3′-pyrrolo[2,3-b]pyridine]-2-carboxamide]",0.89 nM
